Assay results reported in PubChem BioAssay AID192 (DTP/NCI, 2004).
“And” between values parts separate entries of the source, which are not always exact repeats. Identical values can stand only once. Toxic doses and inconclusive results are not listed. Peptide text beside a SMILES is read from it. * marks the point of attachment. Cbz = O=C(OCc1ccccc1)*

Test system: BDF1 mice, B16 melanoma ip, median survival T/C
Assay: NCI In Vivo Anticancer Drug Screen. Data for tumor model B16 Melanoma (intraperitoneal) in B6D2F1 (BDF1) mice
Conditions: endpoint: median survival time, higher = longer survival
Method in brief: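 Survival or tumor size is measured after treatment of tumor-bearing mice and normalised to the vehicle-treated control group.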

[1] = dose: 50.0 mg/kg/injection, schedule: Q04DX003 (ip), vehicle: saline with Tween-80
[2] = dose: 100.0 mg/kg/injection, schedule: Q04DX003 (ip), vehicle: saline with Tween-80
[3] = dose: 6.25 mg/kg/injection, schedule: Q01DX009 (ip), vehicle: saline
[4] = dose: 12.5 mg/kg/injection, schedule: Q01DX009 (ip), vehicle: saline
[5] = dose: 25.0 mg/kg/injection, schedule: Q01DX009 (ip), vehicle: saline
[6] = dose: 3.12 mg/kg/injection, schedule: Q01DX009 (ip), vehicle: saline
[7] = dose: 50.0 mg/kg/injection, schedule: Q01DX009 (ip), vehicle: saline
[8] = dose: 100.0 mg/kg/injection, schedule: Q01DX009 (ip), vehicle: Klucel (hydroxypropylcellulose) (HPC)
[9] = dose: 200.0 mg/kg/injection, schedule: Q01DX009 (ip), vehicle: Klucel (hydroxypropylcellulose) (HPC)
[10] = dose: 400.0 mg/kg/injection, schedule: Q01DX009 (ip), vehicle: Klucel (hydroxypropylcellulose) (HPC)
[11] = dose: 1.56 mg/kg/injection, schedule: Q01DX009 (ip), vehicle: saline
[12] = dose: 100.0 mg/kg/injection, schedule: Q01DX009 (ip), vehicle: saline
[13] = dose: 100.0 mg/kg/injection, schedule: Q01DX009 (ip), vehicle: saline with Tween-80
[14] = dose: 50.0 mg/kg/injection, schedule: Q01DX009 (ip), vehicle: saline with Tween-80
[15] = dose: 200.0 mg/kg/injection, schedule: Q01DX009 (ip), vehicle: saline

Compound: NC(=O)c1ccccc1OCc1ccccc1
- T/C (dose: 75.0 mg/kg/injection, schedule: Q01DX009 (ip), vehicle: Klucel (hydroxypropylcellulose) (HPC)): 100 % of control
- T/C (dose: 150.0 mg/kg/injection, schedule: Q01DX009 (ip), vehicle: Klucel (hydroxypropylcellulose) (HPC)): 101 % of control
- T/C (dose: 300.0 mg/kg/injection, schedule: Q01DX009 (ip), vehicle: Klucel (hydroxypropylcellulose) (HPC)): 101 % of control

Compound: CN(C)/N=C\c1ccccc1Cl
- T/C [1]: 104 % of control
- T/C [2]: 102 % of control

Compound: c1cc2c(c(CC3CO3)c1CC1CO1)OCCOCCOCCOCCO2 (stereo unspecified)
- T/C (dose: 50.0 mg/kg/injection, schedule: Q01DX009 (ip), vehicle: saline + Tween-80 + alcohol): 109 % of control
- T/C (dose: 100.0 mg/kg/injection, schedule: Q01DX009 (ip), vehicle: saline + Tween-80 + alcohol): 118 % of control

Compound: CNCCC=C1c2ccccc2CCc2ccccc21
- T/C [3]: 102 % of control
- T/C [4]: 97 % of control
- T/C [5]: 102 % of control

Compound: Cc1c(N)nc(C(CC(N)=O)NCC(N)C(N)=O)nc1C(=O)NC(C(=O)NC(C)C(O)CC(=O)NC(C(=O)NC(OC1OC(C)C(N)C(O)C1O)C(O)c1nc(-c2nc(C(=O)NCCCC(N)CC(=O)NCCCNCCCCN)cs2)cs1)C(C)O)C(OC1OC(CO)C(O)C(O)C1OC1OC(CO)C(O)C(OC(N)=O)C1O)c1cnc[nH]1 (stereo unspecified)
- T/C (dose: 0.2 mg/kg/injection, schedule: Q01DX009 (ip), vehicle: saline): 113 % of control
- T/C (dose: 0.8 mg/kg/injection, schedule: Q01DX009 (ip), vehicle: saline): 90 % of control
- T/C (dose: 1.6 mg/kg/injection, schedule: Q01DX009 (ip), vehicle: saline): 101 % of control

Compound: CC1=C2CC3CCC(C)C2(CC1)C3(C)C (stereo unspecified)
- T/C (dose: 25.0 mg/kg/injection, schedule: Q04DX003 (ip), vehicle: saline with Tween-80): 105 % of control
- T/C [1]: 100 % of control
- T/C [2]: 91 % of control

Compound: COc1cc(C)c2c(c1C=O)Oc1c(c(C)c(O)c3c1C(O)OC3=O)OC2=O (stereo unspecified)
- T/C [6]: 101 % of control
- T/C [3]: 94 % of control
- T/C [4]: 100 % of control
- T/C [5]: 101 % of control
- T/C [7]: 87 % of control

Compound: CCC(C(C)N1CC(=O)NC(=O)C1)N1CC(=O)NC(=O)C1 (stereo unspecified)
- T/C (dose: 0.06 mg/kg/injection, schedule: Q01DX009 (ip), vehicle: Klucel (hydroxypropylcellulose) (HPC)): 107 % of control
- T/C (dose: 0.13 mg/kg/injection, schedule: Q01DX009 (ip), vehicle: Klucel (hydroxypropylcellulose) (HPC)): 108 % of control
- T/C (dose: 0.25 mg/kg/injection, schedule: Q01DX009 (ip), vehicle: Klucel (hydroxypropylcellulose) (HPC)): 109 % of control and 124 % of control
- T/C (dose: 0.25 mg/kg/injection, schedule: Q04DX003 (ip), vehicle: Klucel (hydroxypropylcellulose) (HPC)): 105 % of control
- T/C (dose: 0.5 mg/kg/injection, schedule: Q01DX009 (ip), vehicle: Klucel (hydroxypropylcellulose) (HPC)): 120 % of control
- T/C (dose: 0.5 mg/kg/injection, schedule: Q04DX003 (ip), vehicle: Klucel (hydroxypropylcellulose) (HPC)): 114 % of control
- T/C (dose: 1.0 mg/kg/injection, schedule: Q04DX003 (ip), vehicle: Klucel (hydroxypropylcellulose) (HPC)): 115 % of control and 121 % of control
- T/C (dose: 8.0 mg/kg/injection, schedule: Q04DX003 (ip), vehicle: Klucel (hydroxypropylcellulose) (HPC)): 156 % of control

Compound: COc1ccc(C(CC(=O)c2ccc3c(c2)OCO3)C(=O)O)cc1OC (stereo unspecified)
- T/C [8]: 96 % of control
- T/C [9]: 100 % of control
- T/C [10]: 100 % of control

Compound: C1CCN(CCC2CCNCC2)C1
- T/C [5]: 109 % of control
- T/C [7]: 90 % of control

Compound: CN(C)[C@@H]1C(=O)C(C(=O)NCN(CCCl)CCCl)=C(O)[C@@]2(O)C(=O)C3=C(O)c4c(O)cccc4[C@@](C)(O)[C@H]3C[C@@H]12
- T/C (dose: 3.13 mg/kg/injection, schedule: Q01DX009 (ip), vehicle: Klucel (hydroxypropylcellulose) (HPC)): 98 % of control
- T/C (dose: 6.25 mg/kg/injection, schedule: Q01DX009 (ip), vehicle: Klucel (hydroxypropylcellulose) (HPC)): 113 % of control
- T/C (dose: 25.0 mg/kg/injection, schedule: Q01DX009 (ip), vehicle: Klucel (hydroxypropylcellulose) (HPC)): 97 % of control

Compound: COc1cccc2c1C(=O)c1c(O)c3c(c(O)c1C2=O)C[C@@](O)(/C(C)=N\NC(=O)CO)C[C@@H]3OC1CC(N)C(O)C(C)O1 (stereo partly specified)
- T/C (dose: 0.39 mg/kg/injection, schedule: Q01DX009 (ip), vehicle: saline): 117 % of control
- T/C [11]: 162 % of control
- T/C (dose: 2.5 mg/kg/injection, schedule: Q01DX001 (ip), vehicle: water): 97 % of control and 100 % of control
- T/C [6]: 173 % of control and 218 % of control
- T/C [3]: 206 % of control and 375 % of control
- T/C (dose: 10.0 mg/kg/injection, schedule: Q01DX001 (ip), vehicle: water): 108 % of control and 250 % of control
- T/C (dose: 20.0 mg/kg/injection, schedule: Q01DX001 (ip), vehicle: water): 87 % of control and 102 % of control
- T/C (dose: 40.0 mg/kg/injection, schedule: Q01DX001 (ip), vehicle: water): 95 % of control

Compound: Brc1ccc2c(c1)-c1ccccc1C1=NCCN12
- T/C (dose: 2.5 mg/kg/injection, schedule: Q01DX009 (ip), vehicle: Klucel (hydroxypropylcellulose) (HPC)): 118 % of control
- T/C (dose: 5.0 mg/kg/injection, schedule: Q01DX009 (ip), vehicle: Klucel (hydroxypropylcellulose) (HPC)): 103 % of control
- T/C (dose: 5.0 mg/kg/injection, schedule: Q04DX003 (ip), vehicle: saline with Tween-80): 100 % of control
- T/C (dose: 10.0 mg/kg/injection, schedule: Q01DX009 (ip), vehicle: Klucel (hydroxypropylcellulose) (HPC)): 93 % of control
- T/C (dose: 10.0 mg/kg/injection, schedule: Q04DX003 (ip), vehicle: saline with Tween-80): 102 % of control
- T/C (dose: 10.0 mg/kg/injection, schedule: Q04DX003 (ip), vehicle: saline): 105 % of control
- T/C (dose: 20.0 mg/kg/injection, schedule: Q04DX003 (ip), vehicle: saline with Tween-80): 100 % of control

Compound: CC1CC(C)(C)N=C(CCC2CCCC23OCCO3)O1 (stereo unspecified)
- T/C [7]: 108 % of control
- T/C [12]: 111 % of control

Compound: FC(F)(F)c1ccc2c(c1)N(CCCN1CCN(CCC3OCCCO3)CC1)c1ccccc1S2
- T/C (dose: 0.78 mg/kg/injection, schedule: Q01DX009 (ip), vehicle: saline): 116 % of control
- T/C [11]: 118 % of control
- T/C [6]: 90 % of control
- T/C [3]: 115 % of control

Compound: CC(C)OC(=O)Nc1ccc(-c2ccc(NC(=O)OC(C)C)cc2)cc1
- T/C [8]: 109 % of control
- T/C (dose: 100.0 mg/kg/injection, schedule: Q04DX003 (ip), vehicle: Klucel (hydroxypropylcellulose) (HPC)): 109 % of control
- T/C [9]: 118 % of control
- T/C (dose: 200.0 mg/kg/injection, schedule: Q04DX003 (ip), vehicle: Klucel (hydroxypropylcellulose) (HPC)): 90 % of control
- T/C [10]: 109 % of control
- T/C (dose: 400.0 mg/kg/injection, schedule: Q04DX003 (ip), vehicle: Klucel (hydroxypropylcellulose) (HPC)): 92 % of control

Compound: CC(=O)NC1c2cc(Cl)ccc2-c2c(Cl)cc(Cl)cc21 (stereo unspecified)
- T/C [13]: 100 % of control
- T/C (dose: 400.0 mg/kg/injection, schedule: Q01DX009 (ip), vehicle: saline with Tween-80): 95 % of control
- T/C (dose: 800.0 mg/kg/injection, schedule: Q01DX009 (ip), vehicle: saline with Tween-80): 86 % of control

Compound: CSCCC(NC(=O)C(Cc1ccccc1)NC(=O)OCc1ccccc1)C(=O)O (stereo not drawn) (Cbz-Phe-Met-OH; configuration not given here)
- T/C [14]: 97 % of control
- T/C [13]: 93 % of control

Compound: COc1ccccc1NC(=O)Nc1cccc(Cl)c1
- T/C (dose: 6.25 mg/kg/injection, schedule: Q01DX009 (ip), vehicle: saline with Tween-80): 105 % of control
- T/C (dose: 12.5 mg/kg/injection, schedule: Q01DX009 (ip), vehicle: saline with Tween-80): 97 % of control
- T/C (dose: 25.0 mg/kg/injection, schedule: Q01DX009 (ip), vehicle: saline with Tween-80): 100 % of control

Compound: O=C1C=CC(=O)C2=C1C1c3ccccc3C2([N+](=O)[O-])c2ccccc21
- T/C [8]: 97 % of control
- T/C [9]: 97 % of control
- T/C [10]: 100 % of control

Compound: c1ccc2c(c1)CNNC2
- T/C [7]: 123 % of control
- T/C [12]: 111 % of control
- T/C [15]: 100 % of control

Compound: Cc1c2ccnc(C(N)=O)c2c(C)c2c1[nH]c1ccccc12
- T/C (dose: 100.0 mg/kg/injection, schedule: Q04DX003 (ip), vehicle: distilled water + Tween-80): 100 % of control
- T/C (dose: 200.0 mg/kg/injection, schedule: Q04DX003 (ip), vehicle: distilled water + Tween-80): 114 % of control

Compound: CC(CCl)C(C#N)(c1ccccc1)c1ccccc1 (stereo unspecified)
- T/C [14]: 93 % of control
- T/C [13]: 90 % of control
- T/C (dose: 200.0 mg/kg/injection, schedule: Q01DX009 (ip), vehicle: saline with Tween-80): 102 % of control

Compound: SCc1ccccn1
- T/C [12]: 112 % of control
- T/C [15]: 115 % of control
- T/C (dose: 400.0 mg/kg/injection, schedule: Q01DX009 (ip), vehicle: saline): 105 % of control
